{"source": "patent US11952361B1", "about": "“2-(1-(3-(dimethylamino)propyl)-4,5-diphenyl-1H-imidazol-2-yl) pyridin-3-ol as an antitumor and antimicrobial compound” (KING FAISAL UNIVERSITY, priority 2023, dated 2024)", "key": {"[1]": {"test_system": "human prostate cancer cells (PC3)", "experiment": "Cytotoxicity by SRB assay, PC3 cells", "type": "cell-based", "conditions": "0.01 μM to 100 μM, 72 h", "method": "(§1) The human prostate cancer cells (PC3) and human osteosarcoma cells (MG-63) were obtained from Nawah Scientific Inc. (Mokatam, Cairo, Egypt) and cultured in DMEM (Dulbecco's modified eagle's medium), Gibco, USA, supplemented with fetal bovine serum (FBS) at a concentration of 10% and […]. of penicillin and streptomycin (PS). The Cells were incubated at 37° C. in a humidified environment that contained 5% CO2.\n(§2) Cells were seeded in 96-well plates as aliquots of 100 μL cell suspension and incubated in a complete media for 24 h. afterward, cells were treated with 2-(1-(3-(Dimethylanino)propyl)-4,5-diphenyl-1H-imidazol-2-yl)pyridin-3-ol at diverse concentrations ranging from 0.01 μM to 100 μM for 72 h. Then, cells were fixed at 4° C. for one hour with 150 μL of 10% trichloroacetic acid (TCA). After washing the cells five times with distilled water, 70 μL of sulforhodamine (SRB) solution (0.4% w/v) was added and incubated for 10 min at room temperature in a dark place. […] Then, 150 μL of Tris pH 10.5 (10 mM) was added, and the absorbance was measured at 540 nm using a BMG LABTECH®-FiLJOstar Omega microplate reader (Ortenberg, Germany). Half maximal inhibitory concentrations (IC50) values were calculated for each experiment using GraphPad Prism 6 software. […]\n(§3) The inhibition was calculated using the following equation: Inhibition %=100−Average Viability"}, "[2]": {"test_system": "human osteosarcoma cells (MG-63)", "experiment": "Cytotoxicity by SRB assay, MG-63 cells", "type": "cell-based", "conditions": "0.01 μM to 100 μM, 72 h", "method": "as §1, §2, §3"}}}
{"smiles": "CN(C)CCCn1c(-c2ncccc2O)nc(-c2ccccc2)c1-c1ccccc1", "note": "[2-(1-(3-(Dimethylamino)propyl)-4,5-diphenyl-1H-imidazol-2-yl)pyridin-3-ol]", "values": [{"measurement": "antiproliferative activity", "setting": "[1]", "result": "excellent antiproliferative activities"}, {"measurement": "antiproliferative activity", "setting": "[2]", "result": "excellent antiproliferative activities"}, {"measurement": "melting point", "result": "133 to 135", "unit": "°C"}]}
